Experiments:
Rat pharmacokinetics, PO = assay type: in vivo; details: male rat, PO 5 mg/kg oral gavage, plasma, Linear/log trapezoidal; read-out: Rat PO AUC0-t
Protocol: Formulations for PO. An appropriate amount of the test article is weighed and mixed with the appropriate volume of vehicle to get a clear solution or a uniform suspension, vortexing or sonication in water bath may used. Animals are dosed within four hours after the formulation is prepared.
Formulation samples are removed from each of the formulation solutions or suspensions, transferred into 1.5 mL of polypropylene microcentrifuge tubes and run dose validated by LC/UV or LC-MS/MS.
Dose administration. For PO dosing, the dose formulation is administered via oral gavage.
Blood Collection. Each blood collection (about 0.2 mL per time point) is performed from carotid artery cannula (CAC) of each animal into a pre-chilled commercial EDTA-K2 tubes as anti-coagulant, then placed on wet ice until centrifugation. Blood samples are processed for plasma by centrifugation at approximately 4° C., 3,200 g for 10 min. Plasma is collected respectively and a certain amount of plasma from rat is transferred into pre-labeled 96 well plate or polypropylene tubes, quick frozen over dry ice and kept at −60° C. or lower until LC-MS/MS analysis. After terminal collection, all plasmas are stored at approximately −80° C. freezer until final analysis.
Plasma concentration versus time data are plotted in graph and analyzed by non-compartmental approaches using the Phoenix WinNonlin 6.3 software program. Trapezoids: Before TMax (Linear); After Tmax (Log). Partial Area Interpolations: Before TMax (Linear); After Tmax (Log).

[1] = Microsomal stability, rat liver microsomes; assay type: in vitro ADME; details: SD rat liver microsomes 0.5 mg protein/mL, 1 μM test compound, NADPH, 37° C., 60 min; read-out: RLM Clint
Protocol: (§1) Test compound and control working solution preparation. 5 μL of a compound and control stock solution (10 mM in dimethyl sulfoxide (DMSO)) were diluted with 495 μL of acetonitrile (ACN).
(§2) NADPH cofactor preparation. The appropriate amount of NADPH powder was weighed and diluted into a 10 mM MgCl2 solution (working solution concentration: 10 mM; final concentration in reaction system: 1 mM). Materials: NADPH powder: β-Nicotinamide adenine dinucleotide phosphate reduced form, tetrasodium salt; NADPHA4Na (Vendor: Chem-Impex International, Cat. No. 00616).
(§3) Liver Microsome Preparation. The appropriate concentrations of microsome working solutions were prepared in 100 mM potassium phosphate buffer. Materials: Human Liver Microsomes (HLM) Cat No. 452117 and Lot No. 38295 (Corning); SD Rat Liver Microsomes (RLM) Cat No. R1000 and Lot No. 1910100 (Xenotech).
(§4) Stop solution preparation. Cold (4° C.) acetonitrile (ACN) containing 200 ng/mL tolbutamide and 200 ng/mL labetalol as internal standards (IS) were used as the stop solution.
(§5) Assay Procedure. Empty incubation plates (T60 and NCF60) were warmed for 10 mins prior to use. Liver microsomes were diluted to 0.56 mg/mL in 100 mM phosphate buffer. 445 uL microsome working solutions (0.56 mg/mL) were transferred into pre-warmed ‘Incubation’ plates T60 and NCF60, Then ‘Incubation’ plates T60 and NCF60 were pre-incubated for 10 min at 37° C. with constant shaking. 54 μL liver microsomes were transferred to the blank plate, then 6 μL NAPDH cofactor were added to the blank plate, followed by the addition 180 μL quenching solution to the blank plate. 5 μL compound working solution (100 μM) were added into ‘incubation’ plates (T60 and NCF60) containing microsomes and mixed thoroughly 3 times. To the NCF60 plate 50 μL of buffer were added and mixed 3 times thoroughly. Start timing; plate was incubated at 37° C. for 60 min while shaking. In ‘Quenching’ plate TO, were added 180 μL quenching solution and 6 μL NAPDH cofactor. Plate is chilled to prevent evaporation. The T60 plate, was mixed 3 times thoroughly, and immediately 54 μL of the mixture was removed for the 0-min time point to ‘Quenching’ plate. Then 44 μL NAPDH cofactor was added to the incubation plate (T60). Start timing; plate was incubated at 37° C. for 60 min while shaking. Final concentrations of each component in the incubation media: Microsome (0.5 mg protein/mL); Test compound (1 μM); control compound ([…]); ACN (0.99%); and DMSO (0.01%). At 5, 15, 30, 45, and 60 min, 180 μL quenching solution was added to ‘Quenching’ plates, mixed once, and serially transferred 60 μL of sample from T60 plate per time point to ‘Quenching’ plates. For the NCF60 plate, mix once and 60 μL of sample was transferred from the NCF60 incubation to ‘Quenching’ plate containing quenching solution at the 60-min time point (Start time 1:00:00 and End Time 0:00:00).
(§6) All sampling plates were shaken for 10 min, then centrifuged at 4000 rpm for 20 minutes at 4° C. 80 μL of supernatant were transferred into 240 μL HPLC water, and mixed by plate shaker for 10 min. Each bioanalysis plate was sealed and shaken for 10 minutes prior to LC-MS/MS analysis.

[2] = Microsomal stability, human liver microsomes; assay type: in vitro ADME; details: human liver microsomes 0.5 mg protein/mL, 1 μM test compound, NADPH, 37° C., 60 min; read-out: HLM Clint
Protocol: as §1, §2, §3, §4, §5, §6

IL-17A/F = molecular target: T1, IL-17A/F (Homo sapiens, UniProt Q16552+Q96PD4); experiment: IL-17A/F HEK-Blue Cell Assay; assay type: cell-based; details: HEK-Blue IL-17 reporter cells, IL-17A/F stimulation, 20 hours, SEAP readout; read-out: IL17AF HEK Blue pIC50 (converted)
T1 sequence (Q16552 24-155): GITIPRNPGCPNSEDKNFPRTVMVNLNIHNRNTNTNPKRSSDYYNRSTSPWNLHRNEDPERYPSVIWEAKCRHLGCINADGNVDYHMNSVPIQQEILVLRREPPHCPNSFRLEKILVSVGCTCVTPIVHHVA
T1 sequence (Q96PD4 31-163): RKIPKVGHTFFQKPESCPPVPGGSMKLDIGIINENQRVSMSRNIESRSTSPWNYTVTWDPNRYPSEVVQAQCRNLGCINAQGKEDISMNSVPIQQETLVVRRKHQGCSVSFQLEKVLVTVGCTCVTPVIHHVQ

IL-17A/A = molecular target: T2, IL-17A/A (Homo sapiens, UniProt Q16552); experiment: IL-17A/A HEK-Blue Cell Assay; assay type: cell-based; details: HEK-Blue IL-17 reporter cells, IL-17A/A stimulation, 20 hours, SEAP readout; read-out: IL17 AA HEK-5 pIC50 (converted)
T2 sequence (Q16552 24-155): T1 sequence (Q16552 24-155)
Method in brief: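 Cells co-expressing IL-17RA, IL-17RC and Act1 received titrated compound, top final 10 uM in 0.1% DMSO, immediately before IL-17A/A stimulation.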

| SMILES | AUC(0-t) (Rat pharmacokinetics, PO) [ng·h/mL] | microsomal CLint at 1 μM [1] [µL/min/mg] | microsomal CLint at 1 μM [2] [µL/min/mg] | IC50 (IL-17A/F) [µM] | IC50 (IL-17A/A) [µM] |
| --- | --- | --- | --- | --- | --- |
| CCn1nccc1C(=O)N[C@H](C(=O)Nc1ccc([C@H](C)[C@@H](NC(=O)COC)C(=O)N2CCN(C)CC2)cc1F)C(C1CC1)C1CC1 [Compound 215] | > 1000 | < 9.6 | 50 to 150 | 0.01 to 0.1 | 0.01 to 0.1 |
| CCC(=O)N[C@@H](C(=O)N1CCN(C)[C@H](C)C1)[C@@H](C)c1ccc(NC(=O)[C@@H](NC(=O)C2(F)CC2)C(C2CC2)C2CC2)c(F)c1 [Compound 245] | > 1000 | < 9.6 | < 50 | 0.1 to 10 | 0.01 to 0.1 |

Reference: patent US20250177383A1, “DI-CYCLOPROPYL BASED IL-17A MODULATORS AND USES THEREOF” (DICE ALPHA, INC., priority 2022, published 2025)
